In US20260265265A1, “NOVEL BENZIMIDAZOLONE DERIVATIVE COMPOUND AS AUTOTAXIN INHIBITOR” (LG CHEM, LTD., priority 2023, published 2026) one finds IC50 data, which are given here for 27 compounds.

For the test, the target named is T1, Recombinant Human ENPP-2/Autotaxin (Homo sapiens, UniProt Q13822).
T1 construct: purchased R&D systems 5255-EN
Nature of the test: LysoPLD activity measurement (autotaxin enzyme inhibition, choline release, TOOS reagent). Particulars: LysoPLD inhibitory activity; substrate 14:0 LysoPC; absorbance at 555 nm. The test is classed as biochemical. Put shortly:
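Enzyme and compound were preincubated for 30 min before adding 14:0 LysoPC substrate, diluted to 300 μM, for 90 minutes at 37° C. The choline product was quantified colorimetrically with TOOS reagent. Wells without compound held 1% DMSO.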
With `CC1(C)CC=C(c2ccc(-n3c(=O)n(Cc4cccc(C(=O)O)c4F)c4ccc(Cl)cc43)cc2)CC1` [Example 112, 3-((5-chloro-3-(4′,4′-dimethyl-2′,3′,4′,5′-tetrahydro-[1,1′-biphenyl]-4-yl)-2-oxo-2,3-dihydro-1H-benzo[d]imidazol-1-yl)methyl)-2-fluorobenzoic acid], the IC50 (commonly the midpoint of a concentration-inhibition curve) lay within 100 to 1000 nM.

Turning to `CN(C)C(=O)c1ccc(-n2c(=O)n(CCc3cccc(C(=O)O)c3)c3ccc(Cl)cc32)cc1` [Example 113, 3-(2-(5-chloro-3-(4-(dimethylcarbamoyl)phenyl)-2-oxo-2,3-dihydro-1H-benzo[d]imidazol-1-yl)ethyl)benzoic acid], the IC50 fell in the range of 100 to 1000 nM.

As to `CC1(C)Cc2cc(-n3c(=O)n(Cc4cccc(C(=O)O)c4)c4ccc(Cl)cc43)ccc2C1=O` [Example 115, 3-((5-chloro-3-(2,2-dimethyl-1-oxo-2,3-dihydro-1H-inden-5-yl)-2-oxo-2,3-dihydro-1H-benzo[d]imidazol-1-yl)methyl)benzoic acid], the IC50 is 100 to 1000 nM.

With `CN1Cc2cc(-n3c(=O)n(Cc4cccc(C(=O)O)c4)c4ccc(Cl)cc43)ccc2C1=O` [Example 116, 3-((5-chloro-3-(2-methyl-1-oxoisoindolin-5-yl)-2-oxo-2,3-dihydro-1H-benzo[d]imidazol-1-yl)methyl)benzoic acid], the IC50 lay within 100 to 1000 nM.

For the compound `CN1Cc2cc(-n3c(=O)n(Cc4cccc(C(=O)O)c4F)c4ccc(Cl)cc43)ccc2C1=O` [Example 117, 3-((5-chloro-3-(2-methyl-1-oxoisoindolin-5-yl)-2-oxo-2,3-dihydro-1H-benzo[d]imidazol-1-yl)methyl)-2-fluorobenzoic acid], the IC50 lay within 10 to 100 nM.

On to `O=C(O)c1cccc(Cn2c(=O)n(-c3ccc(N4CCC(F)(F)CC4)cc3)c3cc(Cl)ccc32)c1F` [Example 118, 3-((5-chloro-3-(4-(4,4-difluoropiperidin-1-yl)phenyl)-2-oxo-2,3-dihydro-1H-benzo[d]imidazol-1-yl)methyl)-2-fluorobenzoic acid], for which the IC50 is 10 to 100 nM.

In the case of `O=C(O)c1cccc(Cn2c(=O)n(-c3ccc(N4CCC(F)(F)C4)cc3)c3c(F)c(Cl)ccc32)c1F` [Example 119, 3-((5-chloro-3-(4-(3,3-difluoropyrrolidin-1-yl)phenyl)-4-fluoro-2-oxo-2,3-dihydro-1H-benzo[d]imidazol-1-yl)methyl)-2-fluorobenzoic acid], the IC50 fell in the range of 10 to 100 nM.

As for `O=C(O)c1cccc(Cn2c(=O)n(-c3ccc(N4CC(O)C4)cc3)c3c(F)c(Cl)ccc32)c1F` [Example 120, 3-((5-chloro-4-fluoro-3-(4-(3-hydroxyazetidin-1-yl)phenyl)-2-oxo-2,3-dihydro-1H-benzo[d]imidazol-1-yl)methyl)-2-fluorobenzoic acid], the IC50 was 10 to 100 nM.

Turning to `O=C(O)c1cccc(C2(n3c(=O)n(-c4ccc(C5=CCOCC5)cc4)c4cc(Cl)ccc43)CC2)c1` [Example 121, 3-(1-(5-chloro-3-(4-(3,6-dihydro-2H-pyran-4-yl)phenyl)-2-oxo-2,3-dihydro-1H-benzo[d]imidazol-1-yl)cyclopropyl)benzoic acid], the IC50 is below 10 nM.

In the case of `O=C(O)c1cccc(C2(n3c(=O)n(-c4ccc(C5=CCOCC5)cc4)c4cc(Cl)ccc43)CC2)c1F` [Example 122, 3-(1-(5-chloro-3-(4-(3,6-dihydro-2H-pyran-4-yl)phenyl)-2-oxo-2,3-dihydro-1H-benzo[d]imidazol-1-yl)cyclopropyl)-2-fluorobenzoic acid], the IC50 was below 10 nM.

Take `O=C(O)c1cccc(C2(n3c(=O)n(-c4ccc(C5=CCOC5)cc4)c4cc(Cl)ccc43)CC2)c1F` [Example 123, 3-(1-(5-chloro-3-(4-(2,5-dihydrofuran-3-yl)phenyl)-2-oxo-2,3-dihydro-1H-benzo[d]imidazol-1-yl)cyclopropyl)-2-fluorobenzoic acid]: the IC50 was below 10 nM.

Regarding `O=C(O)c1cccc(C2(n3c(=O)n(-c4ccc(C5=CCOC5)cc4)c4cc(Cl)ccc43)CC2)c1` [Example 124, 3-(1-(5-chloro-3-(4-(2,5-dihydrofuran-3-yl)phenyl)-2-oxo-2,3-dihydro-1H-benzo[d]imidazol-1-yl)cyclopropyl)benzoic acid], the IC50 is below 10 nM.

Turning to `O=C(O)c1ccc(Cn2c(=O)n(-c3ccc(N4CCOCC4)cc3)c3c(F)c(Cl)ccc32)cc1` [Example 125, 4-((5-chloro-4-fluoro-3-(4-morpholinophenyl)-2-oxo-2,3-dihydro-1H-benzo[d]imidazol-1-yl)methyl)benzoic acid], the IC50 lay in the range of 100 to 1000 nM.

For the compound `O=C(O)c1cccc(C2(n3c(=O)n(-c4ccc(C(=O)N5CCOCC5)cc4)c4cc(Cl)ccc43)CC2)c1` [Example 126, 3-(1-(5-chloro-3-(4-(morpholine-4-carbonyl)phenyl)-2-oxo-2,3-dihydro-1H-benzo[d]imidazol-1-yl)cyclopropyl)benzoic acid], the IC50 is below 10 nM.

Regarding `C[C@H]1COCCN1C(=O)c1ccc(-n2c(=O)n(C3(c4cccc(C(=O)O)c4)CC3)c3ccc(Cl)cc32)cc1` [Example 127, (S)-3-(1-(5-chloro-3-(4-(3-methylmorpholine-4-carbonyl)phenyl)-2-oxo-2,3-dihydro-1H-benzo[d]imidazol-1-yl)cyclopropyl)benzoic acid], the IC50 was below 10 nM.

For the compound `O=C(O)c1cccc(C2(n3c(=O)n(-c4ccc(C(=O)N5CC(O)C5)cc4)c4cc(Cl)ccc43)CC2)c1` [Example 128, 3-(1-(5-chloro-3-(4-(3-hydroxyazetidine-1-carbonyl)phenyl)-2-oxo-2,3-dihydro-1H-benzo[d]imidazol-1-yl)cyclopropyl)benzoic acid], the IC50 was below 10 nM.

Consider `O=C(O)c1cccc(C2(n3c(=O)n(-c4ccc(C(=O)N5CC(F)(F)C5)cc4)c4cc(Cl)ccc43)CC2)c1` [Example 129, 3-(1-(5-chloro-3-(4-(3,3-difluoroazetidine-1-carbonyl)phenyl)-2-oxo-2,3-dihydro-1H-benzo[d]imidazol-1-yl)cyclopropyl)benzoic acid], for which the IC50 was below 10 nM.

For `O=C(O)c1cccc(C2(n3c(=O)n(-c4ccc(C(=O)N5CCC(F)(F)C5)cc4)c4cc(Cl)ccc43)CC2)c1` [Example 130, 3-(1-(5-chloro-3-(4-(3,3-difluoropyrrolidine-1-carbonyl)phenyl)-2-oxo-2,3-dihydro-1H-benzo[d]imidazol-1-yl)cyclopropyl)benzoic acid], the IC50 was below 10 nM.

As to `O=C(O)c1cccc(C2(n3c(=O)n(-c4ccc(C(=O)N5CCC(F)(F)CC5)cc4)c4cc(Cl)ccc43)CC2)c1` [Example 131, 3-(1-(5-chloro-3-(4-(4,4-difluoropiperidine-1-carbonyl)phenyl)-2-oxo-2,3-dihydro-1H-benzo[d]imidazol-1-yl)cyclopropyl)benzoic acid], the IC50 was below 10 nM.

As to `O=C(O)c1cccc(C2(n3c(=O)n(-c4ccc(C(=O)N5CCC(F)(F)C5)cc4)c4cc(Cl)ccc43)CC2)c1F` [Example 132, 3-(1-(5-chloro-3-(4-(3,3-difluoropyrrolidine-1-carbonyl)phenyl)-2-oxo-2,3-dihydro-1H-benzo[d]imidazol-1-yl)cyclopropyl)-2-fluorobenzoic acid], the IC50 was below 10 nM.

For the compound `O=C(O)c1cccc(C2(n3c(=O)n(-c4ccc(C(=O)N5CCC(F)(F)CC5)cc4)c4cc(Cl)ccc43)CC2)c1F` [Example 133, 3-(1-(5-chloro-3-(4-(4,4-difluoropiperidine-1-carbonyl)phenyl)-2-oxo-2,3-dihydro-1H-benzo[d]imidazol-1-yl)cyclopropyl)-2-fluorobenzoic acid], the IC50 is below 10 nM.

In the case of `O=C(O)c1cccc(C2(n3c(=O)n(-c4ccc(C(=O)N5CC(O)C5)cc4)c4cc(Cl)ccc43)CC2)c1F` [Example 134, 3-(1-(5-chloro-3-(4-(3-hydroxyazetidine-1-carbonyl)phenyl)-2-oxo-2,3-dihydro-1H-benzo[d]imidazol-1-yl)cyclopropyl)-2-fluorobenzoic acid], the IC50 is below 10 nM.

`O=C(O)c1cccc(C2(n3c(=O)n(-c4ccc(C(=O)N5CC6(COC6)C5)cc4)c4cc(Cl)ccc43)CC2)c1F` [Example 135, 3-(1-(3-(4-(2-oxa-6-azaspiro[3.3]heptane-6-carbonyl)phenyl)-5-chloro-2-oxo-2,3-dihydro-1H-benzo[d]imidazol-1-yl)cyclopropyl)-2-fluorobenzoic acid]: the IC50 was below 10 nM.

As for `C[C@H]1COCCN1C(=O)c1ccc(-n2c(=O)n(C3(c4cccc(C(=O)O)c4F)CC3)c3ccc(Cl)cc32)cc1` [Example 136, (S)-3-(1-(5-chloro-3-(4-(3-methylmorpholine-4-carbonyl)phenyl)-2-oxo-2,3-dihydro-1H-benzo[d]imidazol-1-yl)cyclopropyl)-2-fluorobenzoic acid], the IC50 is below 10 nM.

On to `O=C(O)c1cccc(C2(n3c(=O)n(-c4ccc(C(=O)N5CC6(COC6)C5)cc4)c4cc(Cl)ccc43)CC2)c1` [Example 137, 3-(1-(3-(4-(2-oxa-6-azaspiro[3.3]heptane-6-carbonyl)phenyl)-5-chloro-2-oxo-2,3-dihydro-1H-benzo[d]imidazol-1-yl)cyclopropyl)benzoic acid], for which the half-inhibitory concentration (IC50) is below 10 nM.

Take `O=C(O)c1cccc(C2(n3c(=O)n(-c4ccc(-c5nnc(C6CCC(F)(F)CC6)o5)cc4)c4cc(Cl)ccc43)CC2)c1` [Example 138, 3-(1-(5-chloro-3-(4-(5-(4,4-difluorocyclohexyl)-1,3,4-oxadiazol-2-yl)phenyl)-2-oxo-2,3-dihydro-1H-benzo[d]imidazol-1-yl)cyclopropyl)benzoic acid]: the IC50 was below 10 nM.

On to `CN(C)C(=O)Cc1ccc(-n2c(=O)n(C3(c4cccc(C(=O)O)c4)CC3)c3ccc(Cl)cc32)cc1` [Example 139, 3-(1-(5-chloro-3-(4-(2-(dimethylamino)-2-oxoethyl)phenyl)-2-oxo-2,3-dihydro-1H-benzo[d]imidazol-1-yl)cyclopropyl)benzoic acid], for which the IC50 was below 10 nM.
